According to patent publication US7524510B2, “Alkyl-glycoside enhanced vaccination” (The UAB Research Foundation, priority 2005, dated 2009):

How the values were obtained:
[1] = test system: mice; assay: Enhancement of potency of E. coli-vectored epicutaneous vaccine, co-administered without ablation of the stratum corneum; assay type: in vivo, mouse; conditions: topical E. coli vector expressing tetC mixed with TDM, skin not ablated by brushing, sera 2 months postimmunization
Experimental: Preliminary tests of the ability of tetradecyl-β-D maltoside (purchased from Anatrace) to enhance the potency of an E. coli-vectored epicutaneous vaccine when co-administered without ablation of the stratum corneum were conducted. Specifically, mice were immunized by topical application of an E. coli vector expressing tetC mixed with TDM at the indicated concentration and sera were analyzed 2 months postimmunization.

[2] = test system: mice; assay: Enhancement of potency of adenovirus-vectored epicutaneous vaccine, co-administered without ablation of the stratum corneum; assay type: in vivo, mouse; conditions: topical adenovirus vector expressing tetC mixed with TDM, no ablation of stratum corneum, sera 1 month postimmunization
Experimental: Tests of the ability of TDM to enhance the potency of an adenovirus-vectored epicutaneous vaccine when co-administered without ablation of the stratum comeum were also conducted. Here, mice were immunized by topical application of an adenovirus vector expressing tetC mixed with TDM at the indicated concentration, and sera were analyzed 1 month postimmunization.

[3] = test system: Mouse skin; assay: Permeabilization of stratum corneum, electron microscopy of cutaneous architecture; assay type: in vivo; conditions: mouse skin ablated by mechanical brushing, topical TDM incubated 15 min with naked skin
Experimental: Mouse skin was ablated by mechanical brushing prior to topical application of TDM, followed by incubation of TDM at the indicated concentration with naked skin for 15 min, followed by examination of the cutaneous architecture under an electron microscope.

SMILES: CCCCCCCCCCCCCCO[C@@H]1O[C@H](CO)[C@@H](O[C@H]2O[C@H](CO)[C@@H](O)[C@H](O)[C@H]2O)[C@H](O)[C@H]1O [TDM, tetradecyl-β-D-maltoside]
- enhancement of the potency of an E. coli-vectored epicutaneous vaccine (sera analyzed) [1]: No increase over the control
- enhancement of the potency of an adenovirus-vectored epicutaneous vaccine (sera analyzed) [2]: No significant increase over the control
- effect on stratum corneum (cutaneous architecture under electron microscope) [3]: permeablization of the stratum comeum
